# Source: US8088791B2, “Antibacterial agents” (Biots Scientific Management Pty Ltd, priority 2006, dated 2012)
# What was measured:
# [1] = tested on: Staphylococcus aureus ATCC29213; experiment: Minimum Inhibitory Concentration (MIC) testing, broth microdilution, Staphylococcus aureus; assay type: cell-based; details: Staphylococcus aureus ATCC29213; read-out: Staphylococcus aureus MICs Activity
# How it was run: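 Broth microdilution per NCCLS M7-A5 in Mueller Hinton broth, with compound in 1.6% DMSO and inoculum at OD 0.09 diluted 1:100. Plates incubated 16–20 h at 37°C. MIC is the lowest concentration with no visible growth; scored A ≤8, B 16–64, C >64 μg/ml.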
# Bacillus subtilis 168CA = experiment: Minimum Inhibitory Concentration (MIC) testing, broth microdilution, Bacillus subtilis; assay type: cell-based; details: Bacillus subtilis 168CA; read-out: Bacillus subtilis MICs Activity
# How it was run: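 Broth microdilution followed NCCLS M7-A5, in rich broth such as Mueller Hinton, inoculum at OD 0.09 diluted 1:100, compounds in 1.6% DMSO before inoculum. After 16–20 h at 37 °C, MIC was the lowest concentration without visible growth. Score A: ≦8 μg/ml, B: 16–64 μg/ml, C: >64 μg/ml.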
MIC [1] [mg/L],MIC (Bacillus subtilis 168CA) [mg/L],Compound
< 8,< 8,"NC(=O)c1c(F)ccc(OCc2nc(-c3cccc(O)c3)no2)c1F [Example 257, 2,6-Difluoro-3-[3-(3-hydroxyphenyl)-1,2,4-oxadiazol-5-yl]methoxybenzenecarboxamide]"
< 8,< 8,"NC(=O)c1c(F)ccc(OCc2nc(-c3c(Cl)cccc3Cl)no2)c1F [Example 260, 3-[3-(2,6-Dichlorophenyl)-1,2,4-oxadiazol-5-yl]methoxy-2,6-difluorobenzenecarboxamide]"
16 to 64,16 to 64,"NC(=O)c1c(F)ccc(OCc2nc(-c3cccnc3)no2)c1F [Example 262, 2,6-Difluoro-3-[3-(3-pyridinyl)-1,2,4-oxadiazol-5-yl]methoxybenzenecarboxamide]"
16 to 64,< 8,"Cc1ccc(OCc2noc(COc3ccc(F)c(C(N)=O)c3F)n2)cc1 [Example 263, 2,6-Difluoro-3-(3-[(4-methylphenoxy)methyl]-1,2,4-oxadiazol-5-ylmethoxy)benzenecarboxamide]"
16 to 64,< 8,"NC(=O)c1c(F)ccc(OCc2nc(Cc3ccc(Cl)cc3)no2)c1F [Example 265, 3-[3-(4-Chlorobenzyl)-1,2,4-oxadiazol-5-yl]methoxy-2,6-difluorobenzenecarboxamide]"
16 to 64,16 to 64,"NC(=O)c1c(F)ccc(OCc2nc(Cc3ccccc3)no2)c1F [Example 266, 3-[(3-Benzyl-1,2,4-oxadiazol-5-yl)methoxy]-2,6-difluorobenzenecarboxamide]"
< 8,< 8,"NC(=O)c1cccc(OCc2nc(-c3ccc(Cl)cc3)no2)c1F [Example 267, 3-[3-(4-Chloro-phenyl)-[1,2,4]oxadiazol-5-ylmethoxy]-2-fluoro-benzamide]"
16 to 64,< 8,"NC(=O)c1cc(OCc2nc(-c3ccc(Cl)cc3)no2)ccc1F [Example 268, 5-[3-(4-Chloro-phenyl)-[1,2,4]oxadiazol-5-ylmethoxy]-2-fluoro-benzamide]"
< 8,< 8,"NC(=O)c1c(Cl)ccc(OCc2nc(-c3ccc(Cl)cc3)no2)c1F [Example 269, 6-Chloro-3-[3-(4-chloro-phenyl)-[1,2,4]oxadiazol-5-ylmethoxy]-2-fluoro-benzamide]"
< 8,< 8,"NC(=O)c1c(F)ccc(OCc2nc(-c3ccc(Cl)cc3)no2)c1Cl [Example 270, 2-Chloro-3-[3-(4-chloro-phenyl)-[1,2,4]oxadiazol-5-ylmethoxy]-6-fluoro-benzamide]"
< 8,< 8,"NC(=O)c1cc(OCc2nc(-c3ccc(Cl)cc3)cs2)ccc1F [Example 272, 5-[4-(4-Chloro-phenyl)-thiazol-2-ylmethoxy]-2-fluoro-benzamide]"
< 8,< 8,"NC(=O)c1c(Cl)ccc(OCc2nc(-c3ccc(Cl)cc3)cs2)c1F [Example 273, 6-Chloro-3-[4-(4-chloro-phenyl)-thiazol-2-ylmethoxy]-2-fluoro-benzamide]"
< 8,< 8,"NC(=O)c1c(F)ccc(OCc2nc(-c3ccc(Cl)cc3)cs2)c1Cl [Example 274, 2-Chloro-3-[4-(4-chloro-phenyl)-thiazol-2-ylmethoxy]-6-fluoro-benzamide]"
16 to 64,16 to 64,"NC(=O)c1ccnc(OCc2nc(-c3ccc(Cl)cc3)cs2)c1 [Example 275, 2-[4-(4-Chloro-phenyl)-thiazol-2-ylmethoxy]-isonicotinamide]"
< 8,< 8,"N#Cc1ccc(-c2csc(COc3ccc(F)c(C(N)=O)c3F)n2)cc1 [Example 276, 3-[4-(4-Cyano-phenyl)-thiazol-2-ylmethoxy]-2,6-difluoro-benzamide]"
< 8,< 8,"COc1ccc(-c2nc(COc3ccc(F)c(C(N)=O)c3F)sc2-c2ccccc2O)cc1 [Example 277, 2,6-Difluoro-3-[5-(2-hydroxy-phenyl)-4-(4-methoxy-phenyl)-thiazol-2-ylmethoxy]-benzamide]"
< 8,< 8,"COc1ccc(-c2nc(COc3ccc(F)c(C(N)=O)c3F)sc2-c2cccc(O)c2)cc1 [Example 278, 2,6-Difluoro-3-[5-(3-hydroxy-phenyl)-4-(4-methoxy-phenyl)-thiazol-2-ylmethoxy]-benzamide]"
< 8,< 8,"COc1ccc(-c2nc(COc3ccc(F)c(C(N)=O)c3F)sc2-c2ccc(O)cc2)cc1 [Example 279, 2,6-Difluoro-3-[5-(4-hydroxy-phenyl)-4-(4-methoxy-phenyl)-thiazol-2-ylmethoxy]-benzamide]"
< 8,< 8,"COc1ccc(-c2nc(COc3ccc(F)c(C(N)=O)c3F)sc2-c2ccccc2OC)cc1 [Example 280, 2,6-Difluoro-3-[5-(2-methoxy-phenyl)-4-(4-methoxy-phenyl)-thiazol-2-ylmethoxy]-benzamide]"

MIC [1] [mg/L],MIC (Bacillus subtilis 168CA) [mg/L],Compound
< 8,< 8,"COc1ccc(-c2nc(COc3ccc(F)c(C(N)=O)c3F)sc2-c2cccc(OC)c2)cc1 [Example 281, 2,6-Difluoro-3-[5-(3-methoxy-phenyl)-4-(4-methoxy-phenyl)-thiazol-2-ylmethoxy]-benzamide]"
< 8,< 8,"COc1ccc(-c2nc(COc3ccc(F)c(C(N)=O)c3F)sc2-c2ccccc2N)cc1 [Example 283, 2,6-Difluoro-3-[5-(2-amino-phenyl)-4-(4-methoxy-phenyl)-thiazol-2-ylmethoxy]-benzamide]"
< 8,< 8,"COc1ccc(-c2nc(COc3ccc(F)c(C(N)=O)c3F)sc2-c2cccc(N)c2)cc1 [Example 284, 2,6-Difluoro-3-[5-(3-amino-phenyl)-4-(4-methoxy-phenyl)-thiazol-2-ylmethoxy]-benzamide]"
< 8,< 8,"COc1ccc(-c2nc(COc3ccc(F)c(C(N)=O)c3F)sc2-c2ccc(N)cc2)cc1 [Example 285, 2,6-Difluoro-3-[5-(4-amino-phenyl)-4-(4-methoxy-phenyl)-thiazol-2-ylmethoxy]-benzamide]"
< 8,< 8,"COc1ccc(-c2nc(COc3ccc(F)c(C(N)=O)c3F)sc2C2CC2)cc1 [Example 286, 3-[5-Cyclopropyl-4-(4-methoxy-phenyl)-thiazol-2-ylmethoxy]-2,6-difluoro-benzamide]"
< 8,< 8,"COc1ccc(-c2nc(COc3ccc(F)c(C(N)=O)c3F)sc2-c2cscn2)cc1 [Example 288, 2,6-Difluoro-3-[4′-(4-methoxy-phenyl)-[4,5′]bithiazolyl-2′-ylmethoxy]-benzamide]"
< 8,< 8,"COc1ccc(-c2nc(COc3ccc(F)c(C(N)=O)c3F)sc2C#N)cc1 [Example 289, 3-[5-Cyano-4-(4-methoxy-phenyl)-thiazol-2-ylmethoxy]-2,6-difluoro-benzamide]"
< 8,< 8,"NC(=O)c1c(F)ccc(OCc2nc(-c3ccc(O)cc3)cs2)c1F [Example 290, 2,6-Difluoro-3-[4-(4-hydroxy-phenyl)-thiazol-2-ylmethoxy]-benzamide]"
< 8,< 8,"N#Cc1ccc(-c2nc(COc3ccc(F)c(C(N)=O)c3F)sc2Br)cc1 [Example 291, 3-[5-Bromo-4-(4-cyano-phenyl)-thiazol-2-ylmethoxy]-2,6-difluoro-benzamide]"
< 8,< 8,NC(=O)c1c(F)ccc(OCc2nc(-c3ccc(OC(F)(F)F)cc3)no2)c1F [Example 292]
< 8,< 8,"COc1ccc(-c2nc(COc3ccc(F)c(C(N)=O)c3F)co2)cc1 [Example 293, 2,6-Difluoro-3-[2-(4-methoxy-phenyl)-oxazol-4-ylmethoxy]-benzamide]"
< 8,< 8,"NC(=O)c1c(F)ccc(OCc2coc(-c3ccc(Cl)cc3)n2)c1F [Example 294, 3-[2-(4-Chloro-phenyl)-oxazol-4-ylmethoxy]-2,6-difluoro-benzamide]"
< 8,< 8,"Cc1ccc(-c2nc(COc3ccc(F)c(C(N)=O)c3F)co2)cc1 [Example 295, 2,6-Difluoro-3-(2-p-tolyl-oxazol-4-ylmethoxy)-benzamide]"
< 8,< 8,"COc1ccc(-c2nc(COc3ccc(F)c(C(N)=O)c3F)c(C)o2)cc1 [Example 296, 2,6-Difluoro-3-[2-(4-methoxy-phenyl)-5-methyl-oxazol-4-ylmethoxy]-benzamide]"
< 8,< 8,"Cc1oc(-c2ccc(Cl)cc2)nc1COc1ccc(F)c(C(N)=O)c1F [Example 297, 3-[2-(4-Chloro-phenyl)-5-methyl-oxazol-4-ylmethoxy]-2,6-difluoro-benzamide]"
< 8,< 8,"NC(=O)c1c(F)ccc(OCc2csc(-c3ccc(O)cc3)n2)c1F [Example 304, 2,6-Difluoro-3-[2-(4-hydroxy-phenyl)-thiazol-4-ylmethoxy]-benzamide]"
< 8,< 8,"NC(=O)c1c(F)ccc(OCc2csc(-c3ccc(F)cc3)n2)c1F [Example 305, 2,6-Difluoro-3-[2-(4-fluoro-phenyl)-thiazol-4-ylmethoxy]-benzamide]"
< 8,< 8,"NC(=O)c1c(F)ccc(OCc2csc(-c3ccc(Cl)cc3)n2)c1F [Example 306, 3-[2-(4-Chloro-phenyl)-thiazol-4-ylmethoxy]-2,6-difluoro-benzamide]"
< 8,< 8,"NC(=O)c1c(F)ccc(OCc2csc(-c3ccc(OC(F)(F)F)cc3)n2)c1F [Example 307, 2,6-Difluoro-3-[2-(4-trifluoromethoxy-phenyl)-thiazol-4-ylmethoxy]-benzamide]"
